Publication PMC2580763, “Product inhibition of secreted phospholipase A2 may explain lysophosphatidylcholines' unexpected therapeutic properties” (Journal of Inflammation (London, England), 2008)

Tests used:
group IA sPLA2 = assay: purified group IA sPLA2 enzyme activity in vitro with added lysoPC (10-pyrene substrate); assay type: biochemical, Naja mossambica; settings: for Km / Vmax: 15 nM group IA sPLA2; for type of inhibition of group IA sPLA2: lower range of substrate concentrations, added lysoPCs
Description: (§1) Blood was obtained from the trunk of 32 female Sprague Dawley rats (200–250 g) after decapitation. Blood samples were treated with citrate-phosphate-dextrose anticoagulant (1:10, Sigma), and plasma prepared by centrifugation after which samples were frozen at -80° until used. For 16 of these animals, plasma samples were pooled from 4–6 rats for ex vivo enzyme assays. The other 16 rats received lysoPC treatments (see below). The Institutional Animal Care and Use Committee of Drexel University College of Medicine approved all specific procedures of this study. Purified group IA secreted phospholipase A2 from the venom of the Mozambique spitting cobra (Naja mossambica) was obtained from Sigma (St. Louis, MO).
(§2) Enzyme assays were conducted as in previous studies using a Victor 3 fluorescent reader (Perkin Elmer, Waltham, MA). The substrate was 1-palmitoyl-2-pyrenedecanoyl phosphatidylcholine ("10-pyrene"), Caymen Chemical, Ann Arbor MI) a substrate for all calcium dependent PLA2s with the exception of cPLA2 and PAF-AH (LP-PLA2). Substrate solutions were prepared in reaction buffer consisting of 50 mM tris (pH = 7.4), 0.1 M NaCl, 2 mM CaCl2, 0.25% fatty acid-free albumin. The substrate forms phospholipids vesicles in this solution [37], and upon hydrolysis, releases fluorescent 10-pyrenyldecanoic acid (PDA). Plasma samples were 10% final and mixed with lysoPCs by gentle shaking for 100 sec, or they were derived from lysoPC-injected rats. All enzyme reactions were initiated with the addition of the substrate solution to the sPLA2 containing samples. Kinetic parameters including the properties of lysoPC inhibitors were determined by recording the initial maximum velocities (Vo) of enzyme reactions, obtained within 2 minutes of initiation. A detailed presentation of the calculations used in our kinetic analysis has been presented. Relative fluorescent units (RFU) were converted to product concentration using a standard curve made with pyrenyldecanoic acid (Invitrogen, Eugene, OR). Individual reactions were carried out in duplicate or triplicate and kinetic curves were produced using at least 6 substrate concentrations, with lysoPC or its vehicle (PBS with 8% ethanol). Representative Lineweaver-Burk and Michaelis-Menten plots as well as nonlinear regression analyses are presented in Results. Experiments were repeated at least 4 times with similar results. […] These calculations, and Km, Vmax and R^2 were made with statistical (INSTAT) and regression software (Prism), both from Graphpad (San Diego, CA).

plasma sPLA2 [1] = assay: sPLA2 enzyme activity in rat plasma ex vivo with added lysoPC (10-pyrene substrate); assay type: biochemical; settings: for type of inhibition of plasma sPLA2 enzyme activity: kinetic studies, rat plasma ex vivo; for Ki / Km / Vmax: lysoPC 20 μM; for Ki: all reactions with substrates above 15 μM, read-out: Ki ± s.e.m.; for Km / Vmax: plasma 10% final
Description: as §1, §2

plasma sPLA2 [2] = assay: plasma sPLA2 activity of rats after subcutaneous lysoPC injection; assay type: in vivo; settings: rat, subcutaneous 25 mg/kg, 2 hrs after injection; PDA generated in 1 hr
Description: Enzyme assays were conducted as in previous studies using a Victor 3 fluorescent reader (Perkin Elmer, Waltham, MA). The substrate was 1-palmitoyl-2-pyrenedecanoyl phosphatidylcholine ("10-pyrene"), Caymen Chemical, Ann Arbor MI) a substrate for all calcium dependent PLA2s with the exception of cPLA2 and PAF-AH (LP-PLA2). Substrate solutions were prepared in reaction buffer consisting of 50 mM tris (pH = 7.4), 0.1 M NaCl, 2 mM CaCl2, 0.25% fatty acid-free albumin. The substrate forms phospholipids vesicles in this solution [37], and upon hydrolysis, releases fluorescent 10-pyrenyldecanoic acid (PDA). Plasma samples were 10% final and mixed with lysoPCs by gentle shaking for 100 sec, or they were derived from lysoPC-injected rats. […] Kinetic parameters including the properties of lysoPC inhibitors were determined by recording the initial maximum velocities (Vo) of enzyme reactions, obtained within 2 minutes of initiation. […]
Rats were injected subcutaneously under the loose skin at the shoulders with synthetic stearoyl (n = 4) or palmitoyl (n = 4) lysoPCs (25 mg/kg) two hrs before sacrifice and compared to vehicle-injected rats (n = 8). The relative concentrations of active sPLA2 enzymes were measured in plasma samples of these animals by determining the total hydrolysis of substrate in 1 hr.

SMILES | inhibition of group IA sPLA2 (group IA sPLA2; 40 μM lysoPC, 30 μM substrate) | Km (group IA sPLA2; lysoPC 40 μM) [µM] | Vmax (group IA sPLA2; lysoPC 40 μM) [μM/min/ml] | type of inhibition of group IA sPLA2 (group IA sPLA2) | type of inhibition of plasma sPLA2 enzyme activity (plasma sPLA2 [1]) | Ki (plasma sPLA2 [1]) [µM] | Km (plasma sPLA2 [1]) [µM] | Vmax (plasma sPLA2 [1]) [nM/min/ml] | range of plasma sPLA2 activities compared with vehicle-injected control rats (plasma sPLA2 [2]) | percent inhibition (percent reduction in Vo) (group IA sPLA2; 40 μM lysoPC preincubated with 5% albumin (> 600 μM), n = 4) [%] | percent inhibition (percent reduction in Vo) (group IA sPLA2; 40 μM lysoPC, standard buffer (0.25% albumin), n = 8) [%] | Km (group IA sPLA2; lysoPC 10 μM) [µM] | Vmax (group IA sPLA2; lysoPC 10 μM) [μM/min/ml] | Km (group IA sPLA2; lysoPC 20 μM) [µM] | Vmax (group IA sPLA2; lysoPC 20 μM) [μM/min/ml]
CCCCCCCCCC(=O)OC[C@@H](O)COP(=O)([O-])OCC[N+](C)(C)C [Decanoyl, Decanoyl lysoPC, reference compound] | failed to show inhibition | 25 | 342.4 |  |  |  |  |  |  |  |  |  |  |  | 
CCCCCCCCCCCCCCCC(=O)OC[C@@H](O)COP(=O)([O-])OCC[N+](C)(C)C [Palmitoyl, palmitoyl lysoPC] |  |  |  | Uncompetitive inhibition | uncompetitive inhibitors | 25.9 ± 4 | 16.1 | 684.7 | significantly lower and narrower |  |  |  |  |  | 
CCCCCCCCCCCCCCCCCC(=O)OC[C@@H](O)COP(=O)([O-])OCC[N+](C)(C)C [Stearoyl, stearoyl lysoPC] |  | 7.31 | 92.15 | Uncompetitive inhibition | uncompetitive inhibitors | 34.2 ± 17.4 | 11.3 | 669.2 | significantly lower and narrower | 29.3 ± 1.6 | 63 ± 6 | 9.37 | 221.9 | 5.92 | 156.2
